Results as given in US20090047243A1, “COMBINATIONS FOR THE TREATMENT OF B-CELL PROLIFERATIVE DISORDERS” (priority 2007, published 2009).
Counter-ions that a name gives are not always drawn.

Legend:
[1] = tested on: human multiple myeloma cells (MM.1R) transfected with siRNA; experiment: Anti-proliferation assay after siRNA transfection; format: cell-based
Method: siRNA to adenosine receptor A1, A2A, A3, PDE 2A, PDE 3B, PDE 4B, PDE 4D and PDE 7A, and control siRNA siCON were purchased from Dharmacon. A2B siRNA was purchased from Invitrogen. Electroporations were performed using an Amaxa Nucleoporator (program S-20) and solution V. siRNAs were used at 50 nM. […] RNA was isolated using Qiagen RNAeasy kits, and targets quantified by RT-PCR using gene specific primers purchased from Applied Biosystems.
Cells were added to 384-well plates 24 hours prior to compound addition such that each well contained 2000 cells in 35 μL of media. Master plates were diluted 100× (1 μL into 100 μL) into 384-well dilution plates containing only cell culture media. 4.5 μL from each dilution plate was added to each assay plate for a final dilution of 1000×. To obtain combination data, two master plates were diluted into the assay plates. Following compound addition, assay plates were kept at 37° C. and 5% CO2 for 72 hours. Thirty microliters of ATPLite (Perkin Elmer) at room temperature was then added to each well. Final amount of ATP was quantified within 30 minutes using ATPLite luminescent read-out on an Envision 2103 Multilabel Reader (Perkin Elmer). Measurements were taken at the top of the well using a luminescence aperture and a read time of 0.1 seconds per well.
We also examined the antiproliferative activity of adenosine receptor agonists when the MM cell line MM.1R was transfected with siRNA targeting the A1, A2A, A2B or A3 receptor. Specific gene silencing (A1, A2A, A2B, or A3) was greater than 50% as determined by real time PCR analysis 48 hours post-transfection. At 48 hours post-transfection, cells were exposed to adenosine receptor agonist, incubated an additional 72 hours, and compounds assayed for antiproliferative activity. Representative data is in Table 34. Cells transfected with adenosine receptor siRNA or a control siRNA (scrambled sequences designed so that cellular transcriptsare not targeted) were treated with the adenosine receptor agonist ADAC. […] Similar results were obtained with a second siRNA with specificity for different region of the A2A receptor mRNA, confirming that the reduction in adenosine receptor agonist activity is the result of specific siRNA targeting of the A2A receptor (data not shown).
In our experiments, PDE gene silencing was always greater than 50% as confirmed by real time PCR analysis 48 hours post-transfection. At 48 hours post-transfection, cells were exposed to adenosine receptor agonist and PDE inhibitor, incubated an additional 72 hours, and compounds assayed for antiproliferative activity. Representative data is in Tables 39-45. For each analysis, the activity of cells transfected with an siRNA targeting a specific PDE was compared to cells transfected with a control non-targeting siRNA (siCON).

[2] = tested on: human multiple myeloma cells (MM.1R); experiment: Anti-proliferation assay (ATPLite, 72 h); format: cell-based; set-up: key: S = lnfX·lnfY·ΣIdata(Idata−ILoewe), volume over Loewe additivity
In short: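 ATPLite luminescence readout; ANBL6 medium + 10 ng/ml IL-6. Single agents tested at 12 concentrations, 2- or 3-fold serial dilutions. % inhibition vs untreated-well mean.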

INA-6 MM cell line = experiment: Anti-proliferation assay (ATPLite, 72 h); format: cell-based, human; settings: CGS-21680 × PDE inhibitor
Method: (§1) ANBL6 and INA-6 culture media was also supplemented with 10 ng/ml IL-6. […] MM.1S, MM.1R, OCI-ly10, Karpas 422, and SU-DHL6 cells were provided by the Dana Farber Cancer Institute. H929, RPMI-8226, GA-10, and Farage cells were from ATCC (Cat #'s CCL-155, CRL-9068, CRL-2392 and CRL-2630 respectively). MOLP-8, EJM, KSM-12-PE, and OPM2 were from DSMZ. The ANBL6 and INA-6 cell lines were provided by the M. D. Anderson Cancer Research Center. Compounds were prepared in DMSO at 1000× the highest desired concentration. Master plates were generated consisting of serially diluted compounds in 2- or 3-fold dilutions in 384-well format. For single agent dose response curves, the master plates consisted of 9 individual compounds at 12 concentrations in 2- or 3-fold dilutions. For combination matrices, master plates consisted of individual compounds at 6 or 9 concentrations at 2- or 3-fold dilutions. […] To obtain combination data, two master plates were diluted into the assay plates. […] Thirty microliters of ATPLite (Perkin Elmer) at room temperature was then added to each well. […] Measurements were taken at the top of the well using a luminescence aperture and a read time of 0.1 seconds per well. The percent inhibition (% I) for each well was calculated using the following formula: % I=[(avg. untreated wells-treated well)/(avg. untreated wells)]×100. […] Negative inhibition values result from local variations in treated wells as compared to untreated wells. […] The uncertainty of each fitted parameter was estimated from the range over which the change in reduced chi-squared was less than one, or less than minimum reduced chi-squared if that minimum exceeded one, to allow for underestimated σI errors. Single agent curve data were used to define a dilution series for each compound to be used for combination screening in a 6×6 matrix format. […] The Loewe additivity model was used to quantify combination effects. […] A “Synergy Score” was also used, where the Synergy Score S=log fX log fY ΣIdata(Idata-ILoewe), summed over all non-single-agent concentration pairs, and where log fX,Y is the natural logarithm of the dilution factors used for each single agent. This effectively calculates a volume between the measured and Loewe additive response surfaces, weighted towards high inhibition and corrected for varying dilution factors. An uncertainty σS was calculated for each synergy score, based on the measured errors for the Idata values and standard error propagation.

ANBL6 MM cell line = experiment: Anti-proliferation assay (ATPLite, 72 h); format: cell-based, human; settings: CGS-21680 × PDE inhibitor
Method: as §1

EJM MM cell line = experiment: Anti-proliferation assay (ATPLite, 72 h); format: cell-based, human; settings: CGS-21680 × PDE inhibitor
Method: as §1

OPM2 MM cell line = experiment: Anti-proliferation assay (ATPLite, 72 h); format: cell-based, human; settings: CGS-21680 × PDE inhibitor
Method: as §1

MOLP-8 MM cell line = experiment: Anti-proliferation assay (ATPLite, 72 h); format: cell-based, human; settings: CGS-21680 × PDE inhibitor
Method: as §1

KSM-12-PE MM cell line = experiment: Anti-proliferation assay (ATPLite, 72 h); format: cell-based, human; settings: CGS-21680 × PDE inhibitor
Method: as §1

[3] = in combination with adenosine receptor agonist CGS-21680, MM.1R
[4] = in combination with adenosine receptor agonist regadenoson, MM.1R

NCCNC(=O)Cc1ccc(NC(=O)Cc2ccc(Nc3ncnc4c3ncn4[C@@H]3O[C@H](CO)[C@@H](O)[C@H]3O)cc2)cc1 [ADAC, N-(4-(2-((4-(2-((2-aminoethyl)amino)-2-oxoethyl)phenyl)amino)-2-oxoethyl)phenyl)-Adenosine]
Antiproliferative activity ([1]; A1 siRNA, ADAC 0.013 μM): 18%
Antiproliferative activity ([1]; A1 siRNA, ADAC 0.063 μM): 16%
Antiproliferative activity ([1]; A1 siRNA, ADAC 0.51 μM): 41%
Antiproliferative activity ([1]; A1 siRNA, ADAC 1 μM): 52%
Antiproliferative activity ([1]; A2A siRNA, ADAC 0.013 μM): 12%
Antiproliferative activity ([1]; A2A siRNA, ADAC 0.063 μM): 6.7%
Antiproliferative activity ([1]; A2A siRNA, ADAC 0.51 μM): 19%
Antiproliferative activity ([1]; A2A siRNA, ADAC 1 μM): 24%
Antiproliferative activity ([1]; A2B siRNA, ADAC 0.013 μM): 17%
Antiproliferative activity ([1]; A2B siRNA, ADAC 0.063 μM): 12%
Antiproliferative activity ([1]; A2B siRNA, ADAC 0.51 μM): 40%
Antiproliferative activity ([1]; A2B siRNA, ADAC 1 μM): 53%
Antiproliferative activity ([1]; A3 siRNA, ADAC 0.013 μM): 22%
Antiproliferative activity ([1]; A3 siRNA, ADAC 0.063 μM): 18%
Antiproliferative activity ([1]; A3 siRNA, ADAC 0.51 μM): 46%
Antiproliferative activity ([1]; A3 siRNA, ADAC 1 μM): 54%
antiproliferative activity after siRNA silencing ([1]; MM.1R, siRNA that targeted the A2A receptor): reduced
antiproliferative activity after siRNA silencing ([1]; MM.1R, siRNA to the A1, A2B, or A3 receptor): did not affect ADAC activity
Antiproliferative activity ([1]; control siRNA, ADAC 0.013 μM): 19%
Antiproliferative activity ([1]; control siRNA, ADAC 0.063 μM): 15%
Antiproliferative activity ([1]; control siRNA, ADAC 0.51 μM): 43%
Antiproliferative activity ([1]; control siRNA, ADAC 1 μM): 54%

COc1cc2c(cc1OC)-c1cc(=Nc3c(C)cc(C)cc3C)n(C)c(=O)n1CC2 [Trequinsin hydrochloride, 2,3,6,7-tetrahydro-9,10-dimethoxy-3-methyl-2-((2,4,6-trimethylphenyl)imino)-4H-pyrimido(6,1-a)isoquinolin-4-one]
synergy score ([2]; in combination with adenosine receptor agonist ADAC, MM.1R): 6.47
synergy score [2, 3]: 6.57
synergy score ([2]; in combination with adenosine receptor agonist HE-NECA, MM.1R): 4.329
synergy score [2, 4]: 2.8
synergy score (INA-6 MM cell line): 3.93
synergy score (ANBL6 MM cell line): 4.55
synergy score (EJM MM cell line): 4.81
synergy score (OPM2 MM cell line): 4.74
synergy score (MOLP-8 MM cell line): 4.7
synergy score (KSM-12-PE MM cell line): 2.44

CCCCC#Cc1nc(N)c2ncn([C@@H]3O[C@H](C(=O)NCC)[C@@H](O)[C@H]3O)c2n1 [HE-NECA, hexynyladenosine-5′-N-ethylcarboxamide]
Antiproliferative activity ([1]; A2A siRNA, HE-NECA 0.5 μM): 30%
Antiproliferative activity ([1]; A2A siRNA, HE-NECA 1 μM): 29%
Antiproliferative activity ([1]; A2A siRNA, HE-NECA 2 μM): 38%
Antiproliferative activity ([1]; A2A siRNA, HE-NECA 4.1 μM): 40%
effect of A2A receptor silencing on agonist activity ([1]; MM.1R, A2A siRNA): strong effect
Antiproliferative activity ([1]; MM.1R, siRNA targeting PDE 2A, HE-NECA 1.25 nM, R-(−)-Rolipram 0 μM): 36
Antiproliferative activity ([1]; MM.1R, siRNA targeting PDE 2A, HE-NECA 5 nM, R-(−)-Rolipram 0 μM): 51
Antiproliferative activity ([1]; MM.1R, siRNA targeting PDE 2A, HE-NECA 10 nM, R-(−)-Rolipram 0 μM): 55
Antiproliferative activity ([1]; MM.1R, siRNA targeting PDE 2A, HE-NECA 20 nM, R-(−)-Rolipram 0 μM): 68
Antiproliferative activity ([1]; MM.1R, siRNA targeting PDE 2A, HE-NECA […], R-(−)-Rolipram 0 μM): 48
Antiproliferative activity ([1]; control siRNA, HE-NECA 0.5 μM): 68%
Antiproliferative activity ([1]; control siRNA, HE-NECA 1 μM): 68%
Antiproliferative activity ([1]; control siRNA, HE-NECA 2 μM): 73%
Antiproliferative activity ([1]; control siRNA, HE-NECA 4.1 μM): 74%

COc1cc(-c2ccc(=O)[nH]n2)ccc1OC(F)F [Zardaverine, 6-(4-(difluoromethoxy)-3-methoxyphenyl)-3(2H)-Pyridazinone]
synergy score [2, 3]: 2.15
synergy score [2, 4]: 1.49
synergy score (INA-6 MM cell line): 2.69
synergy score (ANBL6 MM cell line): 2.11
synergy score (EJM MM cell line): 0.98
synergy score (OPM2 MM cell line): 1.15
synergy score (MOLP-8 MM cell line): 3.06
synergy score (KSM-12-PE MM cell line): 0.49
